Activity calls are given as the source filed them. The rule behind the calls is not given here.
Legend:
Bacillus sp. [1] = assay: Antibacterial activity against Bacillus sp. 3.38 at 300 ug by agar diffusion assay; type: functional; conditions: Bacillus sp. (in: firmicutes), read-out: IZ
Panagrellus redivivus = assay: Nematicidal activity against Panagrellus redivivus assessed as effect on larval development at 200 ug/mL after 48 hrs; type: functional, organism-based
Bacillus sp. [2] = assay: Antibacterial activity against Bacillus sp. 3.38 at 150 ug by agar diffusion assay; type: functional; conditions: Bacillus sp. (in: firmicutes), read-out: IZ
Bacillus subtilis [3] = assay: Antibacterial activity against Bacillus subtilis 3.34 assessed as by agar diffusion assay; type: functional
Bacillus subtilis [4] = assay: Antibacterial activity against Bacillus subtilis 3.34 at 25 ug by agar diffusion assay; type: functional; conditions: read-out: IZ
Staphylococcus aureus = assay: Antibacterial activity against Staphylococcus aureus 3.17 at 50 ug by agar diffusion assay; type: functional; conditions: read-out: DIZ
Bacillus sp. [5] = assay: Antibacterial activity against Bacillus sp. 3.38 at 50 ug by agar diffusion assay; type: functional; conditions: Bacillus sp. (in: firmicutes), read-out: DIZ
Bacillus subtilis [6] = assay: Antibacterial activity against Bacillus subtilis 3.34 at 50 ug by agar diffusion assay; type: functional; conditions: read-out: IZ
Bacillus subtilis [7] = assay: Antibacterial activity against Bacillus subtilis 3.34 at 10 ug by agar diffusion assay; type: functional; conditions: read-out: DIZ

SMILES	zone of inhibition at 300 µg/disc (Bacillus sp. [1])	Activity (Panagrellus redivivus)	zone of inhibition at 150 µg/disc (Bacillus sp. [2])	MIC (Bacillus subtilis [3])	zone of inhibition at 25 µg/disc (Bacillus subtilis [4])	zone of inhibition at 50 µg/disc (Staphylococcus aureus)	zone of inhibition at 50 µg/disc (Bacillus sp. [5])	zone of inhibition at 50 µg/disc (Bacillus subtilis [6])	zone of inhibition at 10 µg/disc (Bacillus subtilis [7])
CC(C)=CCC/C(C)=C/C[C@H](O)/C(C)=C/[C@H](O)[C@]12O[C@H]1[C@H](O)C(CO)=C[C@@H]2O [ARTHROBOTRISIN B]	8 mm	inactive	4.7 mm						
CC(C)=CCC/C(C)=C/C[C@H](O)/C(C)=C/[C@H](O)[C@]12O[C@H]1[C@@H](O)C(CO)=C[C@@H]2O [ARTHROBOTRISIN C]		inactive		5 µg	14.2 mm	7 mm	9.1 mm	19.4 mm	
O=C(N[C@H](CO)[C@H](O)c1ccc([N+](=O)[O-])cc1)C(Cl)Cl [CHLORAMPHENICOL]									36.3 mm
